Measurements reported in patent publication US8367727B2, “Method of using abscisic acid to treat diseases and disorders” (priority 2006, dated 2013).
Marks after values point to notes of the source that are not given here.

How the values were obtained:
CD8+ T cells = assay: CFSE flow cytometry proliferation assay, Concanavalin A-stimulated splenocytes, CD8+ T cells; format: cell-based, mice; conditions: 100 mg ABA/kg diet; first 4 generations
Method: Single cell suspensions were prepared from the spleen by gently crushing the spleens excised during the necropsy procedure between the frosted ends of microscope glass slides previously autoclaved. Tissue debris were removed by settling, erythrocytes were eliminated by hypotonic lysis and cells finally resuspended in complete RPMI (cRPMI, 10% fetal bovine serum (Hyclone, Logan, Utah), 25 mM HEPES buffer (Sigma, St. Louis, Mo.), 100 units/ml penicillin (Sigma), […] streptomycin (Sigma), 1 mM sodium pyruvate (Sigma), 1 mM nonessential aminoacids (Sigma), and 2 mM essential amino acids (Mediatech), and enumerated with a Coulter Z1 Single Particle Counter (Beckman Coulter, Miami, Fla.). […]
Splenocytes at 10^6 cells/ml were seeded in 96-well, round-bottom microtiter plates and incubated incomplete RPMI with or without Concanavalin A (Sigma) at 2.5 μg/ml. […] Following 2 washes in Fluorescence activated cell sorting (FACS) buffer, cells were incubated with streptavidin-PeCy5 (Pharmingen, San Diego, Calif.) for the biotinylated anti-mouse CD4 antibody. Cells were analyzed by 3-color flow cytometry (CFSE, phycoerythrin and PeCy5) in a FACScalibur instrument (Becton Dickinson). Ten thousand events were acquired, and data were analyzed using the Cell Quest Pro™ software (Becton Dickinson). Proliferation was assessed by the decrease in fluorescent intensity of CFSE staining. […]

MCP-1, PPAR γ, CD36 = assay: Real-time qRT-PCR of stromal-vascular cells (SVCs), adipocytes and liver, db/db mice; format: in vivo
From the text: Complementary DNA (cDNA) concentrations for genes of interest were examined by real-time quantitative PCR using an iCycler IQ System and the iQ SYBR green supermix (BioRad). A standard curve was generated for each gene using 10-fold dilutions of purified amplicons starting at 5 pg of cDNA and used later to calculate the starting amount of target cDNA in the unknown samples. SYBR green I is a general double-stranded DNA intercalating dye and may therefore detect nonspecific products and primer/dimers in addition to the amplicon of interest. In order to determine the number of products synthesized during the real-time PCR, a melting curve analysis was performed on each product. Real-time PCR was used to measure the starting amount of nucleic acid of each unknown sample of cDNA on the same 96-well plate. Results are presented as starting quantity of target cDNA (picograms) per microgram of total RNA.

[1] = tested on: dextran sodium sulfate (DSS)-induced colitis; assay: DSS-induced colitis in C57BL/6J (wt) and PPAR γ flfl; CD4 Cre+ mice; format: in vivo
Method: Eight to twelve week old C57BL/6J (n=16) and PPAR γ flfl; CD4 cre+(n=20) mice were housed at the animal facilities at Virginia Polytechnic Institute and State University in a room maintained at 75° F., with a 12:12 h light-dark cycle starting from 6:00 AM. All experimental procedures were approved by the Institutional Animal Care and Use Committee of Virginia Polytechnic Institute and State University and met or exceeded requirements of the Public Health Service/National Institutes of Health and the Animal Welfare Act. C57BL/6J mice were fed AIN-93G-based diets with or without 100 mg/kg of a racemic ABA mixture for 35 days prior to induction of colitis with water containing 2.5% dextran sodium sulfate (DSS), 36,000-44,000 mol wt (ICN Biomedicals, Aurora, Ohio). After the DSS challenge mice were weighed on a daily basis and examined for clinical signs of disease associated with colitis (i.e., perianal soiling, rectal bleeding, diarrhea, and piloerection). For the DSS challenge, the disease activity indices and rectal bleeding scores were calculated using a modification of a previously published compounded clinical score (50). […] Spleen and mesenteric lymph nodes (MLN) were scored based on size and macroscopic inflammatory lesions (0-3), excised, and then crushed to produce single-cell suspensions for flow cytometry.

[2] = tested on: immune cell populations in blood and MLN; assay: Immunophenotyping of blood and mesenteric lymph nodes by flow cytometry after DSS challenge; format: in vivo, mice
Method: MLNs were excised and crushed with frosted slides, washed with PBS, and resuspended in PBS and enumerated with a Coulter Counter (Beckman Coulter, Fullerton, Calif.). MLN-derived cells (2×10^5 cells/well) or whole blood (10 μL/well) were seeded onto 96-well plates, centrifuged at 4° C. at 3000 rpm for 4 minutes, and washed with PBS containing 5% serum and 0.09% sodium azide (FACS buffer). […] For lymphocyte assessment, cells were incubated with anti-CD4-Alexa Fluor 700 (2 μg/mL; BD Pharmingen), anti-CD8-PerCp-Cy5.5 (2 μg/mL, eBioscience), CD3 PE-Cy5 (2 μg/mL; BD Pharmingen), anti-CD25-FITC (BD), anti-CTLA-4 FITC (BD), or anti-FoxP3-PE (2 μg/mL, eBioscience) as previously shown (77). Flow results were computed with a BD LSR II flow cytometer and data analyses was performed with FACS Diva software (BD).

For `CC1=CC(=O)CC(C)(C)C1(O)/C=C/C(C)=C\C(=O)O` (racemic) [ABA, abscisic acid], the “CD8+ T cells RPI1” value (CD8+ T cells) was 5.261*, the “MCP-1 mRNA in the adipocyte fraction” value (MCP-1, PPAR γ, CD36; P=0.05) was “significant reduction” and the CD36 expression (MCP-1, PPAR γ, CD36; SVCs and adipocytes) was “only significantly elevated in SVCs”. The “PPAR γ mRNA expression” value (MCP-1, PPAR γ, CD36; SVCs and adipocytes) was “higher in both SVCs and adipocytes”, the “mRNA expression of MIP-1α or TLR-4” value (MCP-1, PPAR γ, CD36; SVCs or adipocytes) was “did not see significant differences” and the “decrease of MCP-1 mRNA in SVCs” value (MCP-1, PPAR γ, CD36; db/db mice, 100 mg/kg diet, 36 days) was roughly 15 fold. The “improvements in disease activity and inflammation” value ([1]; CD4cre mice lacking PPAR γ in CD4+ T cells) was “not present in the CD4cre mice”, the “disease activity and macroscopic inflammation” value ([1]; wild-type (wt) mice) was “significantly reduced disease activity and macroscopically observable inflammation” and the “CTLA-4 expression on CD4+ T cells in blood” value ([2]; ABA-fed wild-type mice) was “significantly increased”. For the same molecule, the “percent of CD4+CD25+FoxP3+ regulatory T cells” value ([2]; MLN) was “significantly increased”, the “effect on F4/80+CD11b+ monocytes” value ([2]; PPAR γ-deficient (CD4cre) mice) was “absent” and the “increase of CTLA-4 expression on CD4+ T cells in blood” value ([2]; lack of PPAR γ (CD4cre mice)) was “abrogated”. For the same molecule, the “F4/80+CD11b+ monocytes” value ([2]; wt mice, blood) was “significantly decreased”.
